Test results: US9089572B2, “Inhibitors of p97” (California Institute of Technology, priority 2008, dated 2015)

Columns and labels:
LNCaP = assay: MTT cell growth assay, LNCaP; format: cell-based; conditions: Homo sapiens, 48 or 72 h, read-out: Cell line inhibition of growth GI50 LNCaP
Experimental: (§1) To probe further the effect of compound 2 and related compounds 1, 3, 5, 6 and 7, various concentrations of these compounds were added to 13 different cell lines and incubated for 48 or 72 h. An MTT assay was then performed to evaluate cell growth and survival.

HeLa = assay: MTT cell growth assay, HeLa; format: cell-based; conditions: Homo sapiens, 48 or 72 h, read-out: Cell line inhibition of growth GI50 HeLa
Experimental: as §1

Ub-G76V-GFP/HeLa cells = assay: Degradation of pre-accumulated Ub-G76V-GFP (cycloheximide chase after MG132 washout); format: cell-based; conditions: up to 10 μM
Experimental: To evaluate this possibility, an assay was developed to determine the rate of degradation of pre-accumulated Ub-G76V-GFP molecules. […] Cells were then washed with PBS three times remove the MG132. Cells were then refreshed by adding DMEM containing cycloheximide (50 μg/mL; to block production of more Ub-G76V-GFP) and test compounds (0˜10 μM) were added into cells. Eight 96-well plates were prepared and one of the plates was imaged at 25, 50, 70, 100, 110, 125, 145, or 170 min after washing with PBS three times. After washing out MG132, degradation of pre-accumulated Ub-G76V-GFP appears to follow pseudo-first order reaction. Rate constant (K; 1/min) can be determined from the slope of plotting Ln (Fold Accumulation) versus Time (min) (see FIG. 17 and FIG. 18).
Ub-G76V-GFP/HeLa cells were treated with MG132 (2 μM) for 1 h and washed with PBS three times. DMEM containing cycloheximide (50 μg/mL) and compound 8 (0-10 μM) was added into cells. Eight 96-well plates were prepared and one of the plates was imaged at 25, 50, 70, 100, 110, 125, 145, or 170 min after washing with PBS three times.

MCF7 = assay: MTT cell growth assay, MCF7; format: cell-based; conditions: Homo sapiens, 48 or 72 h, read-out: Cell line inhibition of growth GI50 MCF7
Experimental: as §1

PC3 = assay: MTT cell growth assay, PC3; format: cell-based; conditions: Homo sapiens, PC-3, 48 or 72 h, read-out: Cell line inhibition of growth GI50 PC3
Experimental: as §1

HeLa cells = assay: Accumulation of high molecular weight ubiquitin conjugates (anti-ubiquitin immunoblot), HeLa cells; format: cell-based; conditions: 1 h at 37° C.
Description: (§2) To evaluate whether compound 2 can target p97 activity in cells, we sought to determine whether this compound induces accumulation of high molecular weight ubiquitin conjugates, since it is known that RNAi-mediated knockdown of p97 in mammalian cells has this effect (Wojcik, C. et al. J. Cell Sci. (2004) 117, 281-292). As a positive control for this experiment, the proteasome inhibitor MG132 was used. […] The cells were then harvested, lysed, and centrifuged to generate soluble and insoluble fractions. These fractions were then immunoblotted with anti-ubiquitin antibodies to detect accumulation of high molecular weight conjugates. Blots were also probed with anti-PSTAIRE antibodies as a loading control. […] This effect is particularly pronounced in the insoluble fraction.
(§3) To evaluate whether compound 8 can target p97 activity in cells, it was determined whether this compound induces accumulation of high molecular weight ubiquitin conjugates, since it is known that RNAi-mediated knockdown of p97 in mammalian cells has this effect (Wojcik, C. et al. J. Cell Sci. (2004) 117, 281-292). The proteasome inhibitor bortezomib (velcade) was employed as a positive control for this experiment. HeLa (FIG. 25) or RPMI8226 (FIG. 26) cells were treated with Velcade, compound 8, or a combination thereof for 1 h at 37° C. The cells were then harvested and cell lysates were immunoblotted with anti-ubiquitin antibodies to detect accumulation of high molecular weight conjugates. Blots were also probed with anti-PSTAIRE antibodies as a loading control.

RL = assay: MTT cell growth assay, RL; format: cell-based; conditions: Homo sapiens, 48 or 72 h, read-out: Cell line inhibition of growth GI50 RL
Experimental: as §1

Molt4 = assay: MTT cell growth assay, Molt4; format: cell-based; conditions: Homo sapiens, MOLT-4, 48 or 72 h, read-out: Cell line inhibition of growth GI50 Molt4
Experimental: as §1

13 different cell lines = assay: MTT cell growth assay, summary across 13 different cell lines; format: cell-based; conditions: vs compound 2, 13 cell lines
Experimental: as §1
Data for the assay with MCF-7 cells and HeLa cells is shown in FIG. 21 and FIG. 22, respectively. […] Thus, compound 2 blocks p97-dependent processes in cells and also blocks the proliferation of cancer cell lines, illustrating its potential utility as an anti-proliferative drug to treat cancer.

RPMI8226 cells = assay: Accumulation of high molecular weight ubiquitin conjugates (anti-ubiquitin immunoblot), RPMI8226 cells; format: cell-based; conditions: 1 h at 37° C.
Description: as §2, §3

wild type murine p97 = wild type murine p97 (Mus musculus, UniProt Q01853); assay: In vitro ATP hydrolysis (malachite green ATPase assay), wild type murine p97; format: biochemical; conditions: 200 nM p97, 20 min preincubation at 23° C., malachite green; read-out: In vitro ATP Hydrolysis Activity IC50 WT-mP97
Experimental: (§4) Compounds were tested for their ability to inhibit the ATPase activity of purified wild type murine p97 and T532C-Cdc48, a mutant of yeast Cdc48 in which the residue analogous to cysteine 522, threonine 532, was converted to cysteine.

RPMI8226 = assay: MTT cell growth assay, RPMI8226; format: cell-based; conditions: Homo sapiens, RPMI-8226, 48 or 72 h, read-out: Cell line inhibition of growth GI50 RPMI8226
Experimental: as §1

HTC116 WT = assay: MTT cell growth assay, HTC116 WT; format: cell-based; conditions: 48 or 72 h, read-out: Cell line inhibition of growth GI50 HTC116 WT
Experimental: as §1

DU145 = assay: MTT cell growth assay, DU145; format: cell-based; conditions: Homo sapiens, DU-145, 48 or 72 h, read-out: Cell line inhibition of growth GI50 DU145
Experimental: as §1

MDAMB-231 = assay: MTT cell growth assay, MDAMB-231; format: cell-based; conditions: Homo sapiens, MDA-MB-231, 48 or 72 h, read-out: Cell line inhibition of growth GI50 MDAMB-231
Experimental: as §1

CCRF-CEM = assay: MTT cell growth assay, CCRF-CEM; format: cell-based; conditions: Homo sapiens, 48 or 72 h, read-out: Cell line inhibition of growth GI50 CCRF-CEM
Experimental: as §1

293 = assay: MTT cell growth assay, 293; format: cell-based; conditions: Homo sapiens, HEK293, 48 or 72 h, read-out: Cell line inhibition of growth GI50 293
Experimental: as §1

HCT116 p53−/− = assay: MTT cell growth assay, HCT116 p53−/−; format: cell-based; conditions: Homo sapiens, HCT-116, 48 or 72 h, read-out: Cell line inhibition of growth GI50 HCT116 p53−/−
Experimental: as §1

T532C-Cdc48 = T532C-Cdc48 (Saccharomyces cerevisiae, UniProt P25694, T532C); assay: In vitro ATP hydrolysis (malachite green ATPase assay), T532C-Cdc48; format: biochemical, yeast
Experimental: as §4
To determine whether cysteine 522 is necessary for inhibition of p97 by compound 2, a mutant of p97 was constructed in which cysteine 522 was converted to either alanine (C522A-mp97) or threonine (C522T-mp97). The IC50 values of compound 2 were measured the against various enzymes during a 20-minute preincubation (see Table 2). Mutation of cysteine 522 in p97 to either alanine or threonine decreased sensitivity to compound 2 by greater than 100-fold. On the other hand, yeast Cdc48, which normally is quite resistant to compound 2, became nearly 30-fold more sensitive to the compound upon introduction of a cysteine in place of threonine 532.

wild type murine p97, sequence (Q01853 whole entry): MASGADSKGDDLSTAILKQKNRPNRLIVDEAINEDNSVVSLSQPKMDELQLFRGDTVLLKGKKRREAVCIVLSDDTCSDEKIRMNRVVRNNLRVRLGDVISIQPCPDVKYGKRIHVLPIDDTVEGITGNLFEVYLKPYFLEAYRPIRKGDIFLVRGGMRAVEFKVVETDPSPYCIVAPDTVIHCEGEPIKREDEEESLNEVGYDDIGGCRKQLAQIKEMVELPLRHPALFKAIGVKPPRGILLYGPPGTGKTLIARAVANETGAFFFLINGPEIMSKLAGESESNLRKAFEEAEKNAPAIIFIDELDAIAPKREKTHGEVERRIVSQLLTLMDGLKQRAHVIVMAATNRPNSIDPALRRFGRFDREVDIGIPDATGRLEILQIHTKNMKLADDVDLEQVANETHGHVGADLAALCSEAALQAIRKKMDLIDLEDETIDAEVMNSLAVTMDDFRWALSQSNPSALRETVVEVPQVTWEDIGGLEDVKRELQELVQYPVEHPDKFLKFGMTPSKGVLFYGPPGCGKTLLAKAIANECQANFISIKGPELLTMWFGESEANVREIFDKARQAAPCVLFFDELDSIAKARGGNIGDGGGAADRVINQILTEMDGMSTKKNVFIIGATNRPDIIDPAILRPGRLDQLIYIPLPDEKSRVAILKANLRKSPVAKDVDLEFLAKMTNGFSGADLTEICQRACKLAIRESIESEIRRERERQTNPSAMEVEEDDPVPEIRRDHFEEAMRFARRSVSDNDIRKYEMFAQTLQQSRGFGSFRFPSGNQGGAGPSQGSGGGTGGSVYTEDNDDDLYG
T532C-Cdc48, sequence (P25694 whole entry T532C): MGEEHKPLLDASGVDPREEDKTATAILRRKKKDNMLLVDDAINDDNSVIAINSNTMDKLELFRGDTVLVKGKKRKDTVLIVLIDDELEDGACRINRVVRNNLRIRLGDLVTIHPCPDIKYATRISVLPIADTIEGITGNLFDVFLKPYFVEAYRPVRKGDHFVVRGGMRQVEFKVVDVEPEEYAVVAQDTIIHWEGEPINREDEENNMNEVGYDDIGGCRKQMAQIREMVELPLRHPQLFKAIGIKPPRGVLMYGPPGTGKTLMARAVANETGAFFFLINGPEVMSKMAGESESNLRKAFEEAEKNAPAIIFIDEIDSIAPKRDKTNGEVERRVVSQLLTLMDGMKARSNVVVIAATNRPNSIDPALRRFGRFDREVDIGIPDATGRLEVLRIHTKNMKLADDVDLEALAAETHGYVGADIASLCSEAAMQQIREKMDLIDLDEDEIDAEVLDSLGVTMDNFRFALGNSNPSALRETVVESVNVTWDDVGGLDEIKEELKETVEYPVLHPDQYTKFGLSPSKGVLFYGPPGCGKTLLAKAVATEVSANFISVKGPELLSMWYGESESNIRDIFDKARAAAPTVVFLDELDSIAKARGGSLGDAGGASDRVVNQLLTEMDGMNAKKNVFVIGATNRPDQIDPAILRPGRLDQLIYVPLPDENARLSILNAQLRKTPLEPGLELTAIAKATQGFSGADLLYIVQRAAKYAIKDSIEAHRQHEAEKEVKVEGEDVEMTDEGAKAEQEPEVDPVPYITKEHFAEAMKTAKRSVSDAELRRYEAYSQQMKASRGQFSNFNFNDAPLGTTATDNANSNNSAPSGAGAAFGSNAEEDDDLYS

SMILES	GI50 (LNCaP) [µM]	GI50 (HeLa) [µM]	effect on the decay of Ub-G76V-GFP (Ub-G76V-GFP/HeLa cells)	GI50 (MCF7) [µM]	GI50 (PC3) [µM]	accumulation of high molecular weight ubiquitin conjugates, HeLa cells (HeLa cells)	GI50 (RL) [µM]	GI50 (Molt4) [µM]	GI50 higher than that of compound 2 across the same cell lines (13 different cell lines) [fold]	accumulation of high molecular weight ubiquitin conjugates, RPMI8226 cells (RPMI8226 cells)	IC50 (wild type murine p97) [µM]	GI50 (RPMI8226) [µM]	GI50 (HTC116 WT) [µM]	GI50 (DU145) [µM]	GI50 (MDAMB-231) [µM]	GI50 (CCRF-CEM) [µM]	GI50 293 [µM]	GI50 (HCT116 p53−/−) [µM]	IC50 (T532C-Cdc48) [µM]
CC(C)(C)n1nc(-c2ccccc2)c2c(N)ncnc21 [Compound 1]	38 ± 8	2 ± 1	no effect	4 ± 2	11 ± 1	not	21 ± 10	7.4 ± 4.7	3 to 18	not	> 100	1.1 ± 0.7	10 ± 2	18 ± 4	19 ± 8	15 ± 5	92 ± 14	12 ± 4	–
C=CC(=O)N(C(=O)C=C)c1ncnc2c1c(-c1ccccc1)nn2C(C)(C)C [Compound 3]	4.6 ± 1.1	5.3 ± 2.5	–	6.6 ± 2.2	3.3 ± 0.9	–	5 ± 2	2.7 ± 0.8	–	–	1.1 ± 0.7	1.2 ± 0.6	5.1 ± 2	8.2 ± 2.4	24 ± 10	7.2 ± 4.3	–	4 ± 0.9	26 ± 6
CC(C)(C)n1nc(-c2ccccc2)c2c(NC(=O)CCl)ncnc21 [Compound 4]	23 ± 4	–	–	–	6.3 ± 0.6	–	–	–	–	–	4.5 ± 3.5	–	19 ± 6	40 ± 10	–	–	–	20 ± 5	35 ± 8
CC(C)(C)n1nc(-c2ccc3ccccc3c2)c2c(N)ncnc21 [Compound 5]	7.6 ± 1.7	1 ± 0.3	–	2.3 ± 0.4	5.9 ± 0.5	–	0.7 ± 0.2	0.6 ± 0.2	–	–	> 100	9.8 ± 1.8	4.3 ± 1.8	3.5 ± 0.6	10 ± 1.8	3.9 ± 1.3	–	12 ± 3	–
